Test results from patent US7776862B2, “Pyridyl and phenyl substituted piperazine-piperidines with CXCR3 antagonist activity” (Schering Corporation, priority 2005, dated 2010).

Target: T1, human CXCR3 (N-delta 4) (Homo sapiens, UniProt P49682)
T1 construct: CD8 leader; Flag tag; expressed in transfected cells; membranes used
T1 sequence (P49682 5-368 limits assumed): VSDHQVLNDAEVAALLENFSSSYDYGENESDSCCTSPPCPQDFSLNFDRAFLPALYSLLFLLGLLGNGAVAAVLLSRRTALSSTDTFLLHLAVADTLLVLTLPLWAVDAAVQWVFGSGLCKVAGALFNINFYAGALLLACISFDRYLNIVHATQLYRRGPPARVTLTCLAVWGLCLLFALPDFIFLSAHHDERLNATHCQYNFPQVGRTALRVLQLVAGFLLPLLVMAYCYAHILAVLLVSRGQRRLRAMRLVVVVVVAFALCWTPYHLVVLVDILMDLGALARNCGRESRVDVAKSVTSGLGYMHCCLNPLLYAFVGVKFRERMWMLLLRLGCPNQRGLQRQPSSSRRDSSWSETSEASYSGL
Experiment: Human CXCR3 (N-delta 4) scintillation proximity assay (SPA), [125I] IP-10 binding
Details: IC50 rating; Ba/F3-hCXCR3 (N-delta 4) membranes, 25 pM [125I] IP-10
How it was run: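 Membranes from mouse Ba/F3 pro-B cells stably expressing Flag-tagged human CXCR3 (N-delta 4) were coupled to SPA beads. IP-10 was added together with titrated compounds to start the reaction, and bound radioligand was read by scintillation proximity.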

| SMILES | IC50 |
| --- | --- |
| CC[C@H]1CN(c2ncc(COC(=O)NC(C)C)cc2Cl)CCN1C1CCN(Cc2ccc(Cl)cc2F)CC1 [compound 405] | < 25 nM |
| CCNCc1cnc(N2CCN(C3CCN(Cc4ccc(Cl)cc4F)CC3)[C@@H](CC)C2)c(Cl)c1 [compound 406] | < 25 nM |
| CC[C@H]1CN(c2ncc(CNc3nccs3)cc2Cl)CCN1C1CCN(Cc2ccc(Cl)cc2F)CC1 [compound 407] | < 25 nM |
| CC[C@H]1CN(c2ncc(CNC(=O)N(C(=O)NC3CC3)C3CC3)cc2Cl)CCN1C1CCN(Cc2ccc(Br)cc2F)CC1 [compound 408] | < 25 nM |
| CCNC(=O)N(CC)Cc1cnc(N2CCN(C3CCN(Cc4ccc(Cl)cc4F)CC3)[C@@H](CC)C2)c(Cl)c1 [compound 409] | 25 to 100 nM |
| CC[C@H]1CN(c2ncc(CNC(=O)N(C)C)cc2Cl)CCN1C1CCN(Cc2ccc(Cl)cc2F)CC1 [compound 410] | 25 to 100 nM |
| CCC(=O)c1cnc(N2CCN(C3CCN(Cc4ccc(Cl)cc4F)CC3)[C@@H](CC)C2)c(Cl)c1 [compound 411] | 25 to 100 nM |
| CC[C@H]1CN(c2ncc(CNc3c(NC4CC4)c(=O)c3=O)cc2Cl)CCN1C1CCN(Cc2ccc(Br)cc2F)CC1 [compound 412] | 25 to 100 nM |
| CC[C@H]1CN(c2ncc(CN)cc2Cl)CCN1C1CCN(Cc2ccc(Cl)cc2)CC1 [compound 413] | 25 to 100 nM |
| CC[C@H]1CN(c2ncc(CN(C3CC3)S(C)(=O)=O)cc2Cl)CCN1C1CCN(Cc2ccc(Cl)cc2F)CC1 [compound 414] | 25 to 100 nM |
| CCOC(=N)c1cnc(N2CCN(C3CCN(Cc4ccc(Cl)cc4F)CC3)[C@@H](CC)C2)c(Cl)c1 [compound 415] | 25 to 100 nM |
| CC[C@H]1CN(c2ncc(CNS(=O)(=O)CC(F)(F)F)cc2Cl)CCN1C1CCN(Cc2ccc(Cl)cc2F)CC1 [compound 416] | 25 to 100 nM |
| CC[C@H]1CN(c2ncc(CNC(=O)Nc3c(C)noc3C)cc2Cl)CCN1C1CCN(Cc2ccc(Cl)cc2F)CC1 [compound 417] | 25 to 100 nM |
| CC[C@H]1CN(c2ncc(CO)cc2Cl)CCN1C1CCN(C(=O)c2ccc(Br)cc2)CC1 [compound 418] | 25 to 100 nM |
| CC[C@H]1CN(c2ncc(C(=O)C3CC3)cc2Cl)CCN1C1CCN(Cc2ccc(Cl)cc2F)CC1 [compound 419] | 25 to 100 nM |
| CC[C@H]1CN(c2ncc(COC(=O)Nc3ccc(F)cc3)cc2Cl)CCN1C1CCN(Cc2ccc(Cl)cc2F)CC1 [compound 420] | 25 to 100 nM |
| CC[C@H]1CN(c2ncc(CN)cc2Cl)CCN1C1CCN(Cc2ccc(Br)cc2F)CC1 [compound 421] | 25 to 100 nM |
| CCOC(CNC(=N)c1cnc(N2CCN(C3CCN(Cc4ccc(Cl)cc4F)CC3)[C@@H](CC)C2)c(Cl)c1)OCC [compound 422] | 25 to 100 nM |
| CCNC(=O)N(Cc1cnc(N2CCN(C3CCN(Cc4ccc(Cl)cc4F)CC3)[C@@H](CC)C2)c(Cl)c1)C1CC1 [compound 423] | 25 to 100 nM |

| SMILES | IC50 |
| --- | --- |
| CCOCc1cnc(N2CCN(C3CCN(Cc4ccc(Cl)cc4F)CC3)[C@@H](CC)C2)c(Cl)c1 [compound 424] | 25 to 100 nM |
| CC[C@H]1CN(c2ncc(CN)cc2Cl)CCN1C1CCN(Cc2ccc(Cl)cc2F)CC1 [compound 425] | 25 to 100 nM |
| CC[C@H]1CN(c2ncc(C(=N)NN)cc2Cl)CCN1C1CCN(Cc2ccc(Cl)cc2F)CC1 [compound 426] | 25 to 100 nM |
| CC[C@H]1CN(c2ncc(C(C)=O)cc2Cl)CCN1C1CCN(Cc2ccc(Cl)cc2F)CC1 [compound 427] | 25 to 100 nM |
| CC[C@H]1CN(c2ncc(C(=O)c3ncco3)cc2Cl)CCN1C1CCN(Cc2ccc(Cl)cc2F)CC1 [compound 428] | 25 to 100 nM |
| C[C@H]1CN(c2ncc(C(=N)N)cc2Cl)CCN1C1CCN(Cc2ccc(Cl)cc2)CC1 [compound 429] | 25 to 100 nM |
| CCNC(=N)c1cnc(N2CCN(C3CCN(Cc4ccc(Cl)cc4)CC3)[C@@H](C)C2)c(Cl)c1 [compound 430] | 25 to 100 nM |
| CC[C@H]1CN(c2ncc(CNC3=NCCN3)cc2Cl)CCN1C1CCN(Cc2ccc(Cl)cc2F)CC1 [compound 431] | 25 to 100 nM |
| CC[C@H]1CN(c2ncc(CN(C(=O)N(C)C)C3CC3)cc2Cl)CCN1C1CCN(Cc2ccc(Cl)cc2F)CC1 [compound 432] | 25 to 100 nM |
| CC[C@H]1CN(c2ncc(C(C)O)cc2Cl)CCN1C1CCN(Cc2ccc(Cl)cc2F)CC1 (some centres unmarked) [compound 433] | > 100 nM |
| CCNC(=O)OC(C)c1cnc(N2CCN(C3CCN(Cc4ccc(Cl)cc4F)CC3)[C@@H](CC)C2)c(Cl)c1 (some centres unmarked) [compound 434] | > 100 nM |
| CC[C@H]1CN(c2ncc(C(=O)OC)cc2Cl)CCN1C1CCN(Cc2ccc(Br)cc2F)CC1 [compound 435] | > 100 nM |
| CC[C@H]1CN(c2ncc(C(=O)O)cc2Cl)CCN1C1CCN(Cc2ccc(Cl)cc2F)CC1 [compound 436] | > 100 nM |
| CC[C@H]1CN(c2ncc(C(O)c3ncco3)cc2Cl)CCN1C1CCN(Cc2ccc(Cl)cc2F)CC1 (some centres unmarked) [compound 437] | > 100 nM |
| CC[C@H]1CN(c2c(Cl)cc(C(=O)OC)c[n+]2[O-])CCN1C1CCN(Cc2ccc(Cl)cc2F)CC1 [compound 438] | > 100 nM |
| CC/N=C(/NCC)c1cnc(N2CCN(C3CCN(Cc4ccc(Cl)cc4)CC3)[C@@H](C)C2)c(Cl)c1 [compound 439] | > 100 nM |
| C[C@H]1CN(c2ncc(CN)cc2Cl)CCN1C1CCN(Cc2ccc(Cl)cc2)CC1 [compound 440] | > 100 nM |
| CC[C@H]1CN(c2ncc(C(=O)OC)c(N)c2Cl)CCN1C1CCN(Cc2ccc(Cl)cc2F)CC1 [compound 441] | > 100 nM |
| CC[C@H]1CN(c2ncc(C(=N)N)cc2Cl)CCN1C1CCN(C(=O)c2ccc(Cl)nc2N)CC1 [compound 442] | > 100 nM |

| SMILES | IC50 |
| --- | --- |
| CC[C@H]1CN(c2ncc(CNS(=O)(=O)C(F)(F)F)cc2Cl)CCN1C1CCN(Cc2ccc(Cl)cc2F)CC1 [compound 443] | > 100 nM |
| CCC(=NO)c1cnc(N2CCN(C3CCN(Cc4ccc(Cl)cc4F)CC3)[C@@H](CC)C2)c(Cl)c1 [compound 444] | > 100 nM |
| CC[C@H]1CN(c2ncc(CN(C(=O)Nc3c(C)noc3C)C(=O)Nc3c(C)noc3C)cc2Cl)CCN1C1CCN(Cc2ccc(Cl)cc2F)CC1 [compound 445] | > 100 nM |
| CC[C@H]1CN(c2ncc(C(C)(C)O)cc2Cl)CCN1C1CCN(Cc2ccc(Cl)cc2F)CC1 [compound 446] | > 100 nM |
| CC[C@H]1CN(c2ncc(C(=O)OC)cc2Cl)CCN1C1CCN(Cc2ccc(F)cc2C(F)(F)F)CC1 [compound 447] | > 100 nM |
| CC[C@H]1CN(c2ncc(CO)cc2Cl)CCN1C1CCN(C(=O)c2ccccc2)CC1 [compound 448] | > 100 nM |
| COC(=O)c1cnc(N2CCN(C3CCN(Cc4ccc(F)cc4)CC3)[C@@H](C)C2)c(Cl)c1 [compound 449] | > 100 nM |
| CC[C@H]1CN(c2ncc(C(C)N)cc2Cl)CCN1C1CCN(Cc2ccc(Cl)cc2F)CC1 (some centres unmarked) [compound 450] | > 100 nM |
| CC[C@H]1CN(c2ncc(C(C)OC(C)=O)cc2Cl)CCN1C1CCN(Cc2ccc(Cl)cc2F)CC1 (some centres unmarked) [compound 451] | > 100 nM |
| CC[C@H]1CN(c2ccc(CN)cn2)CCN1C1CCN(Cc2ccc(Cl)cc2)CC1 [compound 452] | > 100 nM |
| CCOC(CNC(=N)c1cnc(N2CCN(C3CCN(C(=O)c4ccc(Cl)cc4)CC3)[C@@H](CC)C2)c(Cl)c1)OCC [compound 453] | > 100 nM |
| CC[C@H]1CN(c2ncc(C(=O)OC)cc2Cl)CCN1C1CCN(C(=O)c2ccc(Br)cc2)CC1 [compound 454] | > 100 nM |
| CCC(=NOC)c1cnc(N2CCN(C3CCN(Cc4ccc(Cl)cc4F)CC3)[C@@H](CC)C2)c(Cl)c1 [compound 455] | > 100 nM |
| COC(=O)c1ccc(N2C[C@H](C)N(C3CCN(Cc4ccc(Cl)cc4F)CC3)C[C@H]2C)nc1 [compound 456] | > 100 nM |
| CC[C@H]1CN(c2ncc(C(=O)OC)cc2Cl)CCN1C1CCN(C(=O)c2ccc(-n3cccc3)cc2)CC1 [compound 457] | > 100 nM |
| CC[C@H]1CN(c2c(Cl)cc(C(=O)OC)c[n+]2[O-])CCN1C1CCN(Cc2ccc(Cl)cc2F)CC1 [compound 458] | 25 to 100 nM |
| CC[C@H]1CN(c2ncc(C(N)=O)cc2Cl)CCN1C1CCN(Cc2ccc(Cl)cc2N2CCOC2=O)CC1 [compound 460] | 25 to 100 nM |
| CC[C@H]1CN(c2ncc(C(=O)NC3CC3)cc2C)CCN1C1CCN(C(=O)c2ccc(Cl)cc2)CC1 [compound 461] | < 25 nM |
